Results reported in ChEMBL document CHEMBL1201862, “PubChem BioAssay data set” (2004).
Active and inactive are the calls of the source.

Key:
[1] = cells; type: functional, cell-based
[2] = THP-1 cell cytotoxicity, dose response, cytotoxicity control for non-replicating M. tuberculosis project (AID 489025); type: functional
[3] = loss of viability in HepG2 cells – cell-based, CellTiter-Glo, cherry-picked, cytotoxicity control for Shn3 inhibitor project, dose response (AID 624134); type: functional
[4] = non-specific 3'UTR reporter inhibition in Clone20-Shn3RL – cell-based, Renilla luciferase, cherry-picked, counter-screen for Shn3 inhibitor project, dose response (AID 624133); type: functional
[5] = target: Mitogen-activated protein kinase kinase kinase kinase 4 (Homo sapiens, UniProt O95819); type: functional
[6] = target: Tyrosine-protein kinase ABL1 (Homo sapiens, UniProt P00519); type: functional
[7] = target: Cyclin-dependent kinase 8 (Homo sapiens, UniProt P49336); test: Navigating the Kinome. Panel member name: CDK8; type: functional
[8] = target: Vascular endothelial growth factor receptor 1 (Homo sapiens, UniProt P17948); type: functional;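 further: measured within a kinome-wide profiling panel, FLT1 as the panel member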
[9] = target: Rho-associated protein kinase 1 (Homo sapiens, UniProt Q13464); type: functional;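 further: measured within a broad kinome-wide panel profiling many kinases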
[10] = target: Dual specificity tyrosine-phosphorylation-regulated kinase 1B (Homo sapiens, UniProt Q9Y463); test: Navigating the Kinome. Panel member name: DYRK1B; type: functional
[11] = target: Proto-oncogene tyrosine-protein kinase receptor Ret (Homo sapiens, UniProt P07949); type: functional;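 further: measured within a kinome-wide profiling panel, RET as the panel member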
[12] = target: T1, Receptor-type tyrosine-protein kinase FLT3 (Homo sapiens, UniProt P36888); type: functional;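 further: FLT3 was tested as one member of a kinome-wide kinase panel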
T1 sequence (P36888 whole entry): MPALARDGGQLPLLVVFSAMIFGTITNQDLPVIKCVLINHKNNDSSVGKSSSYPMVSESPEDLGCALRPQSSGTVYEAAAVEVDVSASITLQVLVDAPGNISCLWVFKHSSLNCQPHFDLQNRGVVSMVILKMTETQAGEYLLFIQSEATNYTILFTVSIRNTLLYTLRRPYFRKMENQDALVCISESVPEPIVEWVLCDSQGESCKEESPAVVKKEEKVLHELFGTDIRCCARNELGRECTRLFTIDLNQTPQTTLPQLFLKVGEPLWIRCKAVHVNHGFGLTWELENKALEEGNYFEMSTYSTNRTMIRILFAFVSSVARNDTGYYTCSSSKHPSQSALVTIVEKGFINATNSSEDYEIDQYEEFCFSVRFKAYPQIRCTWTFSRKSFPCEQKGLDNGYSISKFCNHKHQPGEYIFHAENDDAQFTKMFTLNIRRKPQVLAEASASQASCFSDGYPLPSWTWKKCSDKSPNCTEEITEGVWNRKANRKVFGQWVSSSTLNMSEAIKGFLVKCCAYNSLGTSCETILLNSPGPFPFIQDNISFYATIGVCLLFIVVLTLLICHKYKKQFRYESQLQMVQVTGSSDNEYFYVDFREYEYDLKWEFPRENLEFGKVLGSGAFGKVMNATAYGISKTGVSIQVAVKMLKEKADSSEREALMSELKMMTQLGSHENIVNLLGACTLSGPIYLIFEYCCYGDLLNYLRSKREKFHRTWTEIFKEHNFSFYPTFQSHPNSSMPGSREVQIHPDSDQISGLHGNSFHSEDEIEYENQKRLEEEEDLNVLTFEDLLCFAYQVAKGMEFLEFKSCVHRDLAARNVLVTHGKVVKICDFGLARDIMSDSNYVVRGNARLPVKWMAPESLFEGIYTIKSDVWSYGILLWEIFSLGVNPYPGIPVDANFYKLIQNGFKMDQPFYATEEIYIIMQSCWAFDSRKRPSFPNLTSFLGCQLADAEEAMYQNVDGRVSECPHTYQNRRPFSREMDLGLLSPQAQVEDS

[13] = target: Macrophage colony-stimulating factor 1 receptor (Homo sapiens, UniProt P07333); type: functional;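 further: value comes from the Navigating the Kinome screening panel, CSF1R member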
[14] = target: Vascular endothelial growth factor receptor 2 (Homo sapiens, UniProt P35968); type: functional
[15] = target: Leucine-rich repeat serine/threonine-protein kinase 2 (Homo sapiens, UniProt Q5S007); type: functional;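 further: value from a broad kinome-wide panel profiling study in which LRRK2 was one of the kinases tested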

Sequence of Cyclin-dependent kinase 8 (P49336 whole entry): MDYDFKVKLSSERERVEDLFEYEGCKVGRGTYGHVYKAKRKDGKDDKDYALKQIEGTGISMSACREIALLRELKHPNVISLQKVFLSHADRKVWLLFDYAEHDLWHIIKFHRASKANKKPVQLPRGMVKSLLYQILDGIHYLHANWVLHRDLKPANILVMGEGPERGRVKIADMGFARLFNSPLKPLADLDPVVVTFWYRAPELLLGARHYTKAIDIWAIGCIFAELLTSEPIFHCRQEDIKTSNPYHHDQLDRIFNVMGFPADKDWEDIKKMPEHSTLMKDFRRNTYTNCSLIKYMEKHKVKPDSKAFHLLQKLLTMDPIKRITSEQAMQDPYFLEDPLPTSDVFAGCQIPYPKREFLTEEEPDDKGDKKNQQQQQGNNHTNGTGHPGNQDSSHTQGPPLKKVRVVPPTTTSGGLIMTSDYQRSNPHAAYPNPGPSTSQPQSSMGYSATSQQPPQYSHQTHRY
Sequence of Macrophage colony-stimulating factor 1 receptor (P07333 whole entry): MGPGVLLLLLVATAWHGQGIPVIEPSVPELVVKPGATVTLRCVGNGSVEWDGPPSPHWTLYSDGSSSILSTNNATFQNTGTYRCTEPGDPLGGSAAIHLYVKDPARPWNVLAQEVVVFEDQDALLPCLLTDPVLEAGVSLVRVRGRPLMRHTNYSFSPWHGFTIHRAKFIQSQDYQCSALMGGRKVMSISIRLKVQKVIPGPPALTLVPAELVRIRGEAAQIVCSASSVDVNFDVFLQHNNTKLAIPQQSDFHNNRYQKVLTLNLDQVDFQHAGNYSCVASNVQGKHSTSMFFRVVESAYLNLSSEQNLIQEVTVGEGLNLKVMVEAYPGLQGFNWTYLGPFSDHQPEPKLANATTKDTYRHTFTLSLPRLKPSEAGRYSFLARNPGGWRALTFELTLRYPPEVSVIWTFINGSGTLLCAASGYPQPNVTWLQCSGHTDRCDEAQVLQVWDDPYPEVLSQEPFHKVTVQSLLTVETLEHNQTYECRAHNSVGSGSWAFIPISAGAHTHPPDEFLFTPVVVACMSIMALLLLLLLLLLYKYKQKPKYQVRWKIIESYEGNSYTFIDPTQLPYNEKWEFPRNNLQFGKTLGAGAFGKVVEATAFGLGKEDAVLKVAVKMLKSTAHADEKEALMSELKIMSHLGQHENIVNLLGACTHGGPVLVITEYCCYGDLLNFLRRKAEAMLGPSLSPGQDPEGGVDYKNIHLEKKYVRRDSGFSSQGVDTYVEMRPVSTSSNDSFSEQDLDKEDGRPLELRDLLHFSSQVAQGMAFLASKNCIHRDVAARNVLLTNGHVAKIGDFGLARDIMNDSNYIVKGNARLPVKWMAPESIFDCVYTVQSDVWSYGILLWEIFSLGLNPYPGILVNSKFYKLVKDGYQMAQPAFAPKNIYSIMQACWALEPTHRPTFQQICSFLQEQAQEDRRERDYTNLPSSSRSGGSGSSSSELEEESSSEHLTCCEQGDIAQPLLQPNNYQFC
Sequence of Mitogen-activated protein kinase kinase kinase kinase 4 (O95819 whole entry): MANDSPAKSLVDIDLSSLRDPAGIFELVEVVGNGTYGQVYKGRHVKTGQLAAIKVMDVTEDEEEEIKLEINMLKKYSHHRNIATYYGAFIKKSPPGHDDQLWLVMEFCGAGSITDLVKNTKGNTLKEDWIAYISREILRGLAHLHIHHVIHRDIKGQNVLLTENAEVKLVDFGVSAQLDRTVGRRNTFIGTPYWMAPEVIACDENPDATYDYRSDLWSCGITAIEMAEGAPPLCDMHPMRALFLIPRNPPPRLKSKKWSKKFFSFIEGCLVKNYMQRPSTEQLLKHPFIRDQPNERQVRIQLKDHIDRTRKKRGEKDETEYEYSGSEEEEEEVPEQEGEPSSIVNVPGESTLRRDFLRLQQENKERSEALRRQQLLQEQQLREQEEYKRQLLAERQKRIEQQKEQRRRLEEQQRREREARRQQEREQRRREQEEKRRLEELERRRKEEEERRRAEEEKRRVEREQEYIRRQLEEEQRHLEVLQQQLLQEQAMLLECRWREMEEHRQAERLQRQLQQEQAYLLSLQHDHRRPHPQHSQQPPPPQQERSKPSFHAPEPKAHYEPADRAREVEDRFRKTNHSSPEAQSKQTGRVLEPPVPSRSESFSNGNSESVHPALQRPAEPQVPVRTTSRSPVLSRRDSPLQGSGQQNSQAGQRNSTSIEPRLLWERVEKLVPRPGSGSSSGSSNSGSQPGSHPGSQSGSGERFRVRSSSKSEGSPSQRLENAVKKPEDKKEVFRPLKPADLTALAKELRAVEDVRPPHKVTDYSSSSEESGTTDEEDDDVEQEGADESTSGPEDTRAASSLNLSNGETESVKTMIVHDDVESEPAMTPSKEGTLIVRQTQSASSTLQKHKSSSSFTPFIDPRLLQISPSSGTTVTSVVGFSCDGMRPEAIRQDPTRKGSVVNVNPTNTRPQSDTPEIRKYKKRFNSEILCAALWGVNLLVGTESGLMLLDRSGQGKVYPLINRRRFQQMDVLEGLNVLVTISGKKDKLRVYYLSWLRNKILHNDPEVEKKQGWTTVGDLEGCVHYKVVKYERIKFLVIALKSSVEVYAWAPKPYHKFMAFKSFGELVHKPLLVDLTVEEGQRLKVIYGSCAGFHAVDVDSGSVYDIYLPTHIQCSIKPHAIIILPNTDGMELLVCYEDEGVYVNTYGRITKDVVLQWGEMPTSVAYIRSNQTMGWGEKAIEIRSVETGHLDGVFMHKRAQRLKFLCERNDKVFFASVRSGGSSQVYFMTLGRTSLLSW
Sequence of Vascular endothelial growth factor receptor 2 (P35968 whole entry): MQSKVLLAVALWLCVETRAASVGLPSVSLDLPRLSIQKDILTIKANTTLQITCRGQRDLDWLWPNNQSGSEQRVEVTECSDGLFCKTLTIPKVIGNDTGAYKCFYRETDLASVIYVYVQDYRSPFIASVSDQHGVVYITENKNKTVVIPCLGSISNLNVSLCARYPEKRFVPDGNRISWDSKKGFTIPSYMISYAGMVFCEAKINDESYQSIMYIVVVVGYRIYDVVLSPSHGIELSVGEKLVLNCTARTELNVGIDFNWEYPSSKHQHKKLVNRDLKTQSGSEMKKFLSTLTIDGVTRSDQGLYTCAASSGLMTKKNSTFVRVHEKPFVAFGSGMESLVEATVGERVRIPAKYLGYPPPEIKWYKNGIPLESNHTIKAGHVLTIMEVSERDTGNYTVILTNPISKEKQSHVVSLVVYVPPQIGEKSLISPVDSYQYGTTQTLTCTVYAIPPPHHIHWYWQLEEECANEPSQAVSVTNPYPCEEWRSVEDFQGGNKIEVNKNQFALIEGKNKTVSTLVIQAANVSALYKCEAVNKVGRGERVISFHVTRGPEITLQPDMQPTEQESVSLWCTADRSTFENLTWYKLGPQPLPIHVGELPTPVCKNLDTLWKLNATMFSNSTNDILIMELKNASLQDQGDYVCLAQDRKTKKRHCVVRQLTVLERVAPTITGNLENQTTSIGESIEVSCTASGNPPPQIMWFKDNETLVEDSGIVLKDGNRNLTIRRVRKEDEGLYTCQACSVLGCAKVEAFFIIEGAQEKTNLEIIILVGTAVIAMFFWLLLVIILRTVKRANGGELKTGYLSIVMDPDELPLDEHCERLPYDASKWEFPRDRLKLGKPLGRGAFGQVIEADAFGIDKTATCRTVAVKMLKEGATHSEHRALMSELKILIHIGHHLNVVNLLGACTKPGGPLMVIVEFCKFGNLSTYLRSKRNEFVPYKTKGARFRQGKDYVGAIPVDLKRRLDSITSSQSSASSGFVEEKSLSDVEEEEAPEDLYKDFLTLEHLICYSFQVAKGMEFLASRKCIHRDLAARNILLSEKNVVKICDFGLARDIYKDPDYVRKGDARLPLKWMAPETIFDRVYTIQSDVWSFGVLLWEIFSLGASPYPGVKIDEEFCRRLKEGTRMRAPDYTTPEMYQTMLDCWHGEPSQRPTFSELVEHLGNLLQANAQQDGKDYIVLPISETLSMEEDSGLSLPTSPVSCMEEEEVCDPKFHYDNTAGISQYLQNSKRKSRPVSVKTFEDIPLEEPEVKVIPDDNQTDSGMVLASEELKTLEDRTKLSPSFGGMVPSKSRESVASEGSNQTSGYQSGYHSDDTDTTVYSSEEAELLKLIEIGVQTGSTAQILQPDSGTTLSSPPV
Sequence of Dual specificity tyrosine-phosphorylation-regulated kinase 1B (Q9Y463 whole entry): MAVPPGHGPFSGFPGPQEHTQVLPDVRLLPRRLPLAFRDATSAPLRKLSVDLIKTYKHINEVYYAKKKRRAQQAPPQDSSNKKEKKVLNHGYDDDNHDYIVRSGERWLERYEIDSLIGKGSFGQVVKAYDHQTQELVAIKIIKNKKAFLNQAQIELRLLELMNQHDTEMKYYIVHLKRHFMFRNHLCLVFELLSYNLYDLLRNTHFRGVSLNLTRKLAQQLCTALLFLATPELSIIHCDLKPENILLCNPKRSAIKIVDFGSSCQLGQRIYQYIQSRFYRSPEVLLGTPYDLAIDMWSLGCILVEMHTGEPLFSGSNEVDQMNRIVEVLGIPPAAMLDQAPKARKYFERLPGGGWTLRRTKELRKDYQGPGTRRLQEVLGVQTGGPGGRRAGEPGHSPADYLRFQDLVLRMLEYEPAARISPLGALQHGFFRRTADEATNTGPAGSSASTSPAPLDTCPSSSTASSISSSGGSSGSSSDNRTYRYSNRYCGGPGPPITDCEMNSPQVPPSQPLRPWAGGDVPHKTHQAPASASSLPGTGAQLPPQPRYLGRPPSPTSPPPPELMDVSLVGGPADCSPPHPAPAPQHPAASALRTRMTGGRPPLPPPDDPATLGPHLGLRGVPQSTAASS

With `CC(C)CC(=O)NC(c1cccs1)c1ccc2cccnc2c1O` (configuration not stated) the EC50 [1] was 6650 nM (active).

In the case of `CCOC(=O)c1ccc(NC2=CC(=O)C(=O)c3ccccc32)cc1`, the CC50 [2] is reported as 15200 nM (active).

With `OC(CNCCC1C=Nc2ccccc21)Cn1c2ccc(Cl)cc2c2cc(Cl)ccc21` (configuration not stated) the AC50 [3] was 9390 nM (active) and the AC50 [4] was 6080 nM (active).

With `NC1CCC(Nc2nc(Cl)cc(-c3c[nH]c4ncccc34)n2)CC1` (configuration not stated) the Ki [5] was 20 nM (active), the pKi [5] was 7.7 and the Ki [6] was 1580 nM (active). The pKi [6] was 5.8, the Ki [7] was 5.01 nM (active) and the pKi [7] was 8.3. The Ki [8] was > 3980 nM (inactive), the Ki [9] was 1.26 nM (active) and the pKi [9] was 8.9. For the same compound, the Ki [10] was 15.8 nM (active), the pKi [10] was 7.8 and the Ki [11] was 2000 nM (active). For the same compound, the pKi [11] was 5.7, the Ki [12] was 6.31 nM (active) and the pKi [12] was 8.2. The Ki [13] was 126 nM (active), the pKi [13] was 6.9 and the Ki [14] was 794 nM (active). The pKi [14] was 6.1, the Ki [15] was 2 nM (active) and the pKi [15] was 8.7.

For `O=C(O)C1CN(Cc2ccc(OCc3ccccc3)cc2Cl)C1`, the Ki [5] was > 5010 nM (inactive), the Ki [6] was > 2510 nM (inactive) and the Ki [7] was > 3980 nM (inactive). The Ki [8] was > 3980 nM (inactive), the Ki [9] was > 3980 nM (inactive) and the Ki [10] was > 2510 nM (inactive). The Ki [11] was > 3160 nM (inactive), the Ki [12] was > 3160 nM (inactive) and the Ki [13] was > 2510 nM (inactive). The Ki [14] was > 2510 nM (inactive) and the Ki [15] was > 2510 nM (inactive).

In the case of `Cc1ccccc1-c1cc2c(nn1)-c1ccccc1C2=O`, the CC50 [2] is reported as 36200 nM (active).
